Results taken from ChEMBL document CHEMBL5727426, “Tetrahydroisoquinoline derived PRMT5-inhibitors” (2019).
pIC50: −log10 of the molar value.

Test: Revised Biochemical Assay: Compounds of the invention may be tested for in vitro activity in the following assay: A histone H4 derived peptide is used as substrate (amino acid sequence: […]N H2). Full-length PRMT5 enzyme (NCBI Reference sequence NP_006100.2) was co-expressed with His6-MEP50 in insect cells and purified via Nickel immobilized metal affinity and gel filtration chromatography (the enzyme).The 6 μL reactions are run in Greiner brand black 384-well low volume assay plates. All reactions contained assay buffer (phosphate buffered saline, 0.01% (v/v) Tween-20, 0.01% (w/v) albumin from chicken egg white, 1 mM Dithiothreitol, 1 μM peptide substrate, 1 μM S-Adenosyl methionine, and 15 ng/reaction enzyme, with the enzyme being omitted from negative control reactions. Compounds were added in a volume of 100 nL from dilution series prepared in DMSO, positive and negative control reactions receiving the same volume DMSO without compound. The plates were sealed with adhesive seals and incubated for 4 hours at 37 degree Celsius. Reaction progress was measured using the Transcreener EPIGEN methyltransferase assay (BellBrook Labs, Madison, Wis.) as recommended by the manufacturer. To each reaction 2 μL detection mix were added, containing coupling enzymes, fluorescence polarisation tracer, and AMP antibody. Plates were incubated for 90 minutes before being read on a PerkinElmer EnVision plate reader in fluorescence polarisation mode.
In the case of COC(=O)N1[C@@H]2CC[C@H]1CC(Oc1cc(C(=O)NC[C@@H](O)[C@@H]3Cc4ccccc4CN3)ccn1)C2 (stereo partly drawn), the pIC50 was 7.42.
For Cc1ccc(C(=O)NC[C@@H](O)[C@@H]2Cc3ccccc3CN2)cn1, the pIC50 was 5.33.
Compound O=C(NC[C@@H](O)[C@@H]1Cc2ccccc2CN1)c1ccc2[nH]ncc2c1 has a pIC50 of 5.56.
